The values that follow come from patent publication US6903132B2, “Non-peptide GnRH agents, pharmaceutical compositions and methods for their use” (Agouron Pharmaceuticals, Inc., priority 2002, dated 2005).

The structures appear in SMILES notation.

By Tmax is commonly meant the time at which the peak concentration occurs.

A short description of data set [1]: Pharmacokinetics in female rats. The data set is classed as in vivo, rat. To be noted: for FR Fp.o.: 20 mg/kg as 10 mg/ml solution in 10% DMSO 10% cremophor 80% saline, AUCp.o./AUCi.v.; for Tmax: rat, plasma, po, dose and vehicle per footnote, read-out: FR Tmax hr. Here is the method: Rats (male or female, 200-225 g) are prepared with indwelling jugular vein cannula as described by Harms et al., Applied Physiol. 36:391-398 (1974), and allowed to recover overnight with free access to the standard vivarium chow and water. […] […] The blood samples are withdrawn at specific times, plasma is immediately separated and compound extracted with ethyl acetate. The samples are analyzed by LC-MS using 30-90% gradient of ACN in 50 mM ammonium acetate.
(§1) The pharmacokinetic parameters are calculated using WinNonlin software (Scientific Consulting Inc.). The bioavailability is calculated as AUCp.o./AUCi.v., where AUCp.o. and AUCi.v. are areas under the plasma concentration-time curve after oral and i.v. administration, respectively.

Data set [2] in a line: In vitro metabolism: disappearance of parent compound in liver microsomes (male rat). The data set is classed as in vitro ADME. To be noted: 5 uM compound, 0.5 mg/ml microsomal protein, 2 mM NADPH, 30 minutes at 37° C. The protocol: Human, rat, dog, and monkey liver microsomes are isolated by differential centrifugation. Specimens of human liver were obtained from the International Institute for the Advancement of Medicine (Scranton, Pa.). The disappearance of the parent compound is studied in a mixture containing 5 uM compound, 0.5 mg/ml microsomal protein, and 2 mM NADPH in 50 mM K Phosphate buffer, pH 7.4. Samples are incubated for 30 minutes at 37° C. The reaction is terminated by the addition of acetonitrile and compounds analyzed by LC-MS as described above.
(In general: Liver microsomes are vesicles of endoplasmic reticulum, rich in cytochrome P450 enzymes.)

Data set [3] can be described thus: Pharmacokinetics in male rats. Type of data set: in vivo, rat. To be noted: for M T1/ hr: male rats (MR); for M T1/ hr / Tmax: dosed orally at 50 mg/kg; for M Fp. / Tmax: male rats; for M Fp.: oral bioavailability, AUCp.o./AUCi.v.; for Tmax: rat, plasma, po, read-out: MR Tmax hr. The protocol: Rats (male or female, 200-225 g) are prepared with indwelling jugular vein cannula as described by Harms et al., Applied Physiol. 36:391-398 (1974), and allowed to recover overnight with free access to the standard vivarium chow and water. The compounds are administered to female rats at 5 mg/kg i.v. and 10 mg/kg p.o. as solutions in 10% DMSO+10% cremophor+80% saline or 10% cremophor+90% saline. The male rats are dosed orally at 50 mg/kg in the vehicles specified in Table 3. The blood samples are withdrawn at specific times, plasma is immediately separated and compound extracted with ethyl acetate. The samples are analyzed by LC-MS using 30-90% gradient of ACN in 50 mM ammonium acetate.
as §1

Turning to `Cc1cc2c(cc1Cc1ccc(C(=O)NNc3cc(C)c4c(C)nn(C)c4n3)o1)C(C)(C)CCC2(C)C` [Example C1, 5-[(3,5,5,8,8-Pentamethyl-5,6,7,8-tetrahydro-2-naphthalenyl)methyl]-N′-(1,3,4-trimethyl-1H-pyrazolo[3,4-b]pyridin-6yl)-2-furohydrazide], in data set [1], the “FR Fp.o.” value came out at 19%^1 and the Tmax is 1 h. Further, the “Male t % p. 30′” value in data set [2] is 99%. Moreover, in data set [3], the “M T1/ hr” value stood at 1.3 h, the “M Fp.” value was 1% and the Tmax is 1 h.
With `COc1cc2c(cc1Cc1ccc(C(=O)NNc3cc(C)c4c(C)nn(C)c4n3)o1)C(C)(C)CCC2(C)C` [Example C2, 5-[(3-Methoxy-5,5,8,8-tetramethyl-5,6,7,8-tetrahydro-2-naphthalenyl)methyl]-N′-(1,3,4-trimethyl-1H-pyrazolo[3,4-b]pyridin-6-yl)-2-furohydrazide], in data set [1], the “FR Fp.o.” value amounted to 15%^1 and the Tmax amounted to 2 h. Besides, in data set [2], the “Male t % p. 30′” value was 97%. In data set [3], the “M T1/ hr” value was determined as 1.2 h, the “M Fp.” value was determined as 4% and the Tmax came to 1 h.
